{"source": "patent US20050042291A1", "about": "“Diffusion layer modulated solids” (priority 2003, published 2005)", "key": {"[1]": {"assay": "Rat oral bioavailability of tipranavir disodium spray dried powders", "assay_type": "in vivo", "conditions": "plasma, 20 mg/kg", "description": "HPLC analysis of tipranavir in the rat plasma samples following administration of the various tipranavir disodium spray dried powders was conducted using an RP 8 column (Zorbax, DuPont) with a mobile phase consisting of methanolaqueous 0.05 M formate buffer, pH 4 ([…]).\nThe rat oral bioavailability of tipranavir disodium spray dried powders as well as the parent tipranavir disodium bulk drug were administered by intubation of the powders using a group of 7-8 rats (250-290 g) obtained from Taconic (Germantown, N.Y.). Intubation was achieved using a 10 cm (4 inch) section of Teflon tubing, […], containing a piece of cheese (American, fat free) inserted into the bottom of the tubing. The desired tipranavir disodium powdered bulk drug was placed into the tube and the tube was inserted into the stomach of the rat. The drug was displaced from the Teflon tubing and into the stomach by passing 2 ml of water through the tubing. The dose was 20 mg/kg in all cases.\nThe blood samples were processed with precipitation of the proteins with acetonitrile followed by centrifugation. The samples were assayed as described above."}, "[2]": {"assay": "Intrinsic dissolution rate of co-compressed pellets, fiber optic automated rotating disk dissolution method", "assay_type": "physicochemical", "conditions": "for Percent dissolved in 60 minutes at pH 6: pH 6 (0.01 M phosphate) with 0.6% SLS", "description": "The 0.48 cm ( 3/16 inch) HSS rod was inserted into the die to a distance of 1.9 cm (¾ inch), leaving 0.64 (¼ inch) for placement of 20±1 mg of the drug or drug mixture into the 0.48 cm ( 3/16 inch) diameter hole.\nAfter adding the drug, the punch (or HSS rod) was inserted into the die and the entire die assembly was placed into a 3-bolt holder that was used to hold a 0.64 cm (¼ inch) SS base plate firmly against the powder bed during compression in the die. Compression of the powder was achieved on a Carver press using a stepwise increase in the force up to 4450 newtons (1000 pounds force) (i.e., 255 MPa (37000 psi)) and then a progressive decrease in pressure as described in the following. A force of 1110 newtons (250 pounds force) was applied for approximately 10 seconds and the pressure was removed. This was repeated at 2220 newtons (500 pounds force), 3330 newtons (750 pounds force), and 4450 newtons (1,000 pounds force). The 4450 newtons (1000 pounds force) (i.e., 255 MPa (37000 psi)) was applied again and maintained for 1 minute. The pressure was decreased stepwise by simply lowering the pressure and then holding it at 3330 newtons (750 pounds force) for 10 seconds and repeating this at 2220 newtons (500 pounds force), 1110 newtons (250 pounds force) and, finally, the pressure was removed.\nThe die and holder was removed from the Carver press and the punch (or HSS rod) was twisted to loosen the rod and to allow the pellet to relax or expand from the backside. After a three minute (minimum) relaxation period, the set-screw on the HSS rod was firmly secured to the die.\nThe entire punch and die assembly containing the drug pellet with one face of the drug pellet exposed was removed as a unit from the holder and the intrinsic dissolution rate was determined as described below.\nThe HSS rod in the die containing the drug compact with one face of the drug pellet exposed was attached to an electric motor with a fixed speed of 300 revolutions per minute (rpm). The die was rotated (300 rpm) while the die (containing the drug pellet) was lowered at t=0 into the center of the dissolution vessel consisting of a jacketed 800 mL beaker (Pyrex, No.1000) containing 500 mL of the desired de-gassed (house vacuum, 3 minutes) dissolution medium maintained at 37±0.5° C. The dissolution medium consisted of either dilute HCl (0.01, 0.001 or 0.0001 N HCl) or pH 6, 0.01 M phosphate containing 0.6% SLS (sodium lauryl sulfate). The die was positioned such that the drug compact was approximately 6.4 cm (2.5 inches) from the bottom of the 500 mL dissolution beaker and approximately the same distance from the liquid surface. Continuous monitoring by ultraviolet (UV) spectroscopy was conducted by the fiber optic UV automated dissolution method or samples were taken automatically by the HPLC sampling method as described below.\nThe Fiber Optic Dissolution System. The fiber optic UV automated dissolution system employed an Ocean Optics PC Model 1000 fiber optic spectrophotometer connected to a 120 mHz Pentium computer. The dissolution process was monitored continuously at 290 nm with the fiber optic probe with 5-10 data points taken per minute. The data was processed automatically with a Visual Basic application program that allowed the data to be collected automatically from the spectrophotometer.\nThe delavirdine mesylate intrinsic dissolution rate profile was plotted in Excel and the intrinsic dissolution rate was calculated automatically by the program. The dissolution period was usually 15 minutes, but could be as short as approximately 1 minute, or as long as a few hours.\nCalculation of the Intrinsic Dissolution Rate."}, "Solubility": {"assay": "Solubility", "assay_type": "physicochemical", "conditions": "water, pH 6, water"}}, "note": "Where a name gives a salt, the structure may show the parent alone. Read-outs that look alike come from different tables or passages of the source."}
{"smiles": "CCC[C@@]1(CCc2ccccc2)CC(O)=C([C@H](CC)c2cccc(NS(=O)(=O)c3ccc(C(F)(F)F)cn3)c2)C(=O)O1", "note": "[Tipranavir Disodium bulk drug, tipranavir disodium]", "values": [{"measurement": "AUC(0-inf)", "setting": "[1]; fasted, read-out: AUCInf, fasted", "result": 23400, "unit": "ng·h/mL"}, {"measurement": "AUC(0-inf)", "setting": "[1]; fed, read-out: AUCInf, fed", "result": 45800, "unit": "ng·h/mL"}]}
{"smiles": "CC(C)Nc1cccnc1N1CCN(C(=O)c2cc3cc(NS(C)(=O)=O)ccc3[nH]2)CC1", "note": "[Delavirdine Mesylate, delavirdine mesylate]", "values": [{"measurement": "IDR, pH 2 0.01 N HCl", "setting": "[2]; pH 2 0.01 N HCl, 37° C., 300 rpm, observed", "result": "220 micrograms · cm^−2 · sec^−1"}, {"measurement": "Percent of pellet dissolved at pH 2", "setting": "[2]; pH 2 (0.01 N) HCl, 37° C., dissolution then stops", "result": "approximately 60%"}, {"measurement": "Percent dissolved in 60 minutes at pH 6", "setting": "[2]; 20 mg pellet, listed as Delavirdine mesylate alone", "result": "approximately 2%"}, {"measurement": "Percent dissolved in 60 minutes at pH 6", "setting": "[2]; 20 mg pellet, listed as pure delavirdine mesylate", "result": "less than 1%"}, {"measurement": "IDR, pH 6 with 0.5% SLS", "setting": "[2]; pH 6 with 0.5% SLS, 37° C., 300 rpm, observed", "result": "2 micrograms · cm^−2 · sec^−1"}, {"measurement": "Percent dissolved in less than 10 minutes at pH 6", "setting": "[2]; pH 6 with 0.6% SLS, less than 10 minutes, 20 mg pellet", "result": "less than 1%"}]}
{"smiles": "CCC[C@@]1(CCc2ccccc2)CC(O)=C([C@H](CC)c2cccc(NS(=O)(=O)c3ccc(C(F)(F)F)cn3)c2)C(=O)O1", "note": "[tipranavir]", "values": [{"measurement": "solubility", "setting": "Solubility", "result": "5 to 10", "unit": "µg/mL"}]}
